The text below walks through data of patent US9440952B2, “Compounds inhibiting leucine-rich repeat kinase enzyme activity” (Merck Sharp & Dohme Corp., priority 2013, dated 2016).

pIC50: −log10 of the molar value.

One assay deals with T1, LRRK2(G2019S mutation, GST-LRRK2(amino acids 970-2527)) (Homo sapiens, UniProt Q5S007, G2019S).
T1 construct: GST-LRRK2(amino acids 970-2527); GST (N); purchased Life Technologies Corporation
T1 sequence (Q5S007 970-2527 G2019S): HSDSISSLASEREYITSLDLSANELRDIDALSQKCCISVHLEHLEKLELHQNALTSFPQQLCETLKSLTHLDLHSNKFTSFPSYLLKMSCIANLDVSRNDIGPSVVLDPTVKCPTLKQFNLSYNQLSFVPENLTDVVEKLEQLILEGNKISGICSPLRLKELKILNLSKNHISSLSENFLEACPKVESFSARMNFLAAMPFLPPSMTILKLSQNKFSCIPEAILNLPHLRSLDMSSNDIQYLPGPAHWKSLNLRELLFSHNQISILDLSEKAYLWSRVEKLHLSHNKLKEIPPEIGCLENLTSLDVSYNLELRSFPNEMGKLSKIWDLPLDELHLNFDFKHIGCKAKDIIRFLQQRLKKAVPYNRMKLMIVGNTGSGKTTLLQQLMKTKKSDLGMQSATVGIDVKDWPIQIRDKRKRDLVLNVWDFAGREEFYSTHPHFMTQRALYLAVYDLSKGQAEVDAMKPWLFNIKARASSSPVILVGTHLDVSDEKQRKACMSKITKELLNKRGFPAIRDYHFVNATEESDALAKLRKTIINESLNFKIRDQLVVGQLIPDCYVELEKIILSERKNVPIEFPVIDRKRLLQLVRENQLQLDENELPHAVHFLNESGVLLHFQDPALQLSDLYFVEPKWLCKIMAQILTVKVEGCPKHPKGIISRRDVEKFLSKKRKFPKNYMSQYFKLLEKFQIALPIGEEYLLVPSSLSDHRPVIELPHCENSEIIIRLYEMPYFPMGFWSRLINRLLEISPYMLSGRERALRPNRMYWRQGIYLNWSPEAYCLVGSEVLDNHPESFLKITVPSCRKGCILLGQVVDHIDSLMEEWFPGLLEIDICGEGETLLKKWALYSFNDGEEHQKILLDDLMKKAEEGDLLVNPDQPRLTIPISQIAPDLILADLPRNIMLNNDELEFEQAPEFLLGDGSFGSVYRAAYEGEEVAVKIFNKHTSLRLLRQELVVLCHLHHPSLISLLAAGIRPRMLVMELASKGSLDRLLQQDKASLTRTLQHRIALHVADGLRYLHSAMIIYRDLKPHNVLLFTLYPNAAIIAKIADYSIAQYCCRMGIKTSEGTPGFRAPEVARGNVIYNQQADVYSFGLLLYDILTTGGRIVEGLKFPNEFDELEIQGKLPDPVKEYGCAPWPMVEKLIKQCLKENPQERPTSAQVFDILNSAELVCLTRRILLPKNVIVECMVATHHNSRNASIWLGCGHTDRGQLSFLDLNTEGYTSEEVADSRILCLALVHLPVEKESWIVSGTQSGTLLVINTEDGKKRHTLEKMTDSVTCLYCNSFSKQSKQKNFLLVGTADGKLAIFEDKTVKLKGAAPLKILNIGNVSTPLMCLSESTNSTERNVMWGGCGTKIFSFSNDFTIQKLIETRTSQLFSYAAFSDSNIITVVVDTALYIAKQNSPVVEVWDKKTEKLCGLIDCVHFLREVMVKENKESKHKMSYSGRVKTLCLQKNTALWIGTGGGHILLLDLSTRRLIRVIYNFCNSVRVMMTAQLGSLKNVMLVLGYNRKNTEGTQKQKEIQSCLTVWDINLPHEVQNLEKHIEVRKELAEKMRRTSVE
The assay can be described thus: LRRK2 Km ATP LanthaScreen Assay. The format is biochemical. Conditions: Km ATP LanthaScreen Assay; LRRK2 G2019S; mean IC50 values; Examples 185-215; read-out: LRRK2 IC5). Here is the method: Unless otherwise noted, all LRRK2 IC50 data presented in tables refers to the LRRK2 Km ATP LanthaScreen™ Assay that is described in the Biological Assay section.
The data presented for the 5 mM and Km ATP LanthaScreen™ Assay represents mean IC50 values based on several test results and may have reasonable. deviations depending on the specific conditions and reagents used. Reagents for the LRRK2 5 mM and Km ATP LanthaScreen™ Assay were purchased from Life Technologies Corporation.
Results are analysed using Assay Data Analyzer.
Background: In TR-FRET formats the signal depends on donor and acceptor labels being close together.
As for `CC(C)Oc1ccc2[nH]nc(-c3ccnc(N4Cc5cccnc5C4)c3)c2c1` [Example 208], the pIC50 is 7.76.

Regarding `CC(C)Oc1ccc2[nH]nc(-c3ccnc(N4CCC(n5cncn5)CC4)c3)c2c1` [Example 187], the pIC50 is 8.40.

For `CC(C)Oc1ccc2[nH]nc(-c3ccnc(N4CCCC4)c3)c2c1` [Example 201], the pIC50 is 8.30.

As for `CC(C)Oc1ccc2[nH]nc(-c3ccnc(N4CCn5ccnc5C4)c3)c2c1` [Example 196], the pIC50 was 8.07.

The assay is the same for the next values; noted with them: Km ATP LanthaScreen Assay; LRRK2 G2019S; mean IC50 values; read-out: LRRK2 IC50.
As for `CC(C)Oc1ccc2[nH]nc(-c3ccnc(N4CCc5ccccc5C4)c3)c2c1` [Example 139], the pIC50 is 7.74.

In the case of `CC(C)Oc1ccc2[nH]nc(-c3ccnc(NC(=O)c4ccno4)c3)c2c1` [Example 142], the pIC50 was 7.67.

In the case of `c1ccc2c(-c3ccnc(N4CC5CCC(C4)O5)c3)n[nH]c2c1` [Example 402], the pIC50 is 7.57.

With `CO[C@@H]1CCN(c2cc(-c3n[nH]c4ccc(OC(C)C)cc34)ccn2)C1` [Example 178], the pIC50 was 8.30.

Turning to `CC(C)Oc1ccc2[nH]nc(-c3ccnc(NC(=O)C4CC(=O)C4)c3)c2c1` [Example 153], the pIC50 is 7.53.

With `CC(C)Oc1ccc2[nH]nc(-c3ccnc(NC(=O)C4CCCC4)c3)c2c1` [Example 156], the pIC50 is 7.27.

`OC1(c2cccnc2)CCN(c2cc(-c3n[nH]c4ccccc34)ccn2)CC1` [Example 26]: the pIC50 was 7.72.

`CN1CCN(c2cc(-c3n[nH]c4ccccc34)ccn2)CC1` [Example 8]: the pIC50 was 7.38.

As for `c1ccc(C2CCN(c3cc(-c4n[nH]c5ccccc45)ccn3)CC2)nc1` [Example 22], the pIC50 is 7.70.

For the compound `CC(CO)Nc1cc(-c2n[nH]c3ccc(OC(C)C)cc23)ccn1` (stereo not shown) [Example 129], the pIC50 was 5.67.

As to `CS(=O)(=O)c1cccc(Nc2ccc3[nH]nc(-c4ccnc(NC5CC5)c4)c3c2)c1` [Example 112], the pIC50 was 7.96.

On to `CS(=O)(=O)C1CN(c2cc(-c3n[nH]c4ccc(OC(F)(F)F)cc34)ccn2)C1` [Example 236], for which the pIC50 is 6.98.

For `CC(C)Oc1ccc2[nH]nc(-c3ccnc(N4CCCC(O)C4)c3)c2c1` (stereo not shown) [Example 170], the pIC50 is 8.19.

With `CCOc1ccc2[nH]nc(-c3ccnc(N4CC5C(C4)C5(C#N)c4ccccn4)c3)c2c1` (stereo not shown) [Example 229], the pIC50 was 6.95.

Take `N#CC1(c2ccccc2)CCN(c2cc(-c3n[nH]c4ccccc34)ccn2)CC1` [Example 14]: the pIC50 was 7.17.

For the compound `OC1CCN(c2cc(-c3n[nH]c4ccc(OC(F)(F)F)cc34)ccn2)CC1` [Example 231], the pIC50 was 7.08.

Regarding `c1ccc2c(-c3ccnc(N4Cc5cncnc5C4)c3)n[nH]c2c1` [Example 59], the pIC50 is 7.43.

Turning to `CC(C)Oc1ccc2[nH]nc(-c3ccnc(N4CC(S(C)(=O)=O)C4)c3)c2c1` [Example 184], the pIC50 was 8.27.

With `CC(C)Oc1ccc2[nH]nc(-c3ccnc(NC(=O)c4ccccc4-n4cncn4)c3)c2c1` [Example 146], the pIC50 was 7.43.

Regarding `CC(C)Oc1ccc2[nH]nc(-c3ccnc(N4CCC(n5ccnc5)C4)c3)c2c1` (stereo not shown) [Example 171], the pIC50 is 8.51.

Turning to `CC(C)Oc1ccc2[nH]nc(-c3ccnc(N4CCCC(CO)C4)c3)c2c1` (stereo not shown) [Example 131], the pIC50 is 8.82.

For `CC(C)Oc1ccc2[nH]nc(-c3ccnc(NC(=O)C4CC4c4cncnc4)c3)c2c1` (stereo not shown) [Example 158], the pIC50 was 7.51.

In the case of `CC(C)Oc1ccc2[nH]nc(-c3ccnc(NC(=O)c4cnc(C(C)C)nc4)c3)c2c1` [Example 147], the pIC50 is 7.15.

Consider `OCCC1CN(c2cc(-c3n[nH]c4ccc(CO)cc34)ccn2)CCO1` (stereo not shown) [Example 128], for which the pIC50 was 8.00.

Consider `CCN(CC)CCOc1ccc2[nH]nc(-c3ccnc(N4CCOCC4)c3)c2c1` [Example 80], for which the pIC50 is 7.43.

As for `COCCN(C)c1cc(-c2n[nH]c3ccccc23)ccn1` [Example 3], the pIC50 is 7.32.

In the case of `CN1CCN(c2cc(-c3n[nH]c4ccc(OC(F)(F)F)cc34)ccn2)CC1` [Example 234], the pIC50 is 7.08.

Turning to `CNCc1ccc2[nH]nc(-c3ccnc(N4CCOCC4)c3)c2c1` [Example 90], the pIC50 is 6.52.

In the case of `CCOc1ccc2[nH]nc(-c3ccnc(N4CCC4)c3)c2c1` [Example 230], the pIC50 is 7.53.

On to `CC(C)Oc1ccc2[nH]nc(-c3ccnc(N4C5CCCC4CC5)c3)c2c1` [Example 179], for which the pIC50 was 7.75.

`CN1CCC(CN(C)c2cc(-c3n[nH]c4ccccc34)ccn2)CC1` [Example 50]: the pIC50 is 7.40.

With `CCOc1ccc2[nH]nc(-c3ccnc(N4CCn5ccnc5C4)c3)c2c1` [Example 226], the pIC50 is 7.72.

Regarding `c1ccc2c(-c3ccnc(N4CCN(Cc5ccncc5)CC4)c3)n[nH]c2c1` [Example 19], the pIC50 is 7.74.

For the compound `c1ccc2c(-c3ccnc(N4CCC5OCCC54)c3)n[nH]c2c1` (stereo not shown) [Example 63], the pIC50 is 7.40.

With `c1ccc(N2CCN(c3cc(-c4n[nH]c5ccccc45)ccn3)CC2)nc1` [Example 13], the pIC50 was 7.66.

The same assay, now with this note: Km ATP LanthaScreen; mean IC50 of several tests; read-out: LRRK2 IC50.
With `CN1CCN(c2cc(-c3n[nH]c4ccc(-c5cnn(C)c5)cc34)ccn2)CC1=O` [Example 279], the pIC50 is 8.54.

For the compound `Cc1nnc(-c2ccc3[nH]nc(-c4ccnc(N5CC(F)C5)c4)c3c2)o1` [Example 308], the pIC50 is 8.31.

Regarding `Fc1ccc2[nH]nc(-c3ccnc(N4CCOCC4)c3)c2c1` [Example 391], the pIC50 is 7.21.

Consider `Cc1ccc2[nH]nc(-c3ccnc(N4CCOCC4)c3)c2c1` [Example 124], for which the pIC50 is 8.02.

Take `CCOc1ccc2[nH]nc(-c3ccnc(N4CCCC4)c3)c2c1` [Example 297]: the pIC50 was 8.14.

As for `CC(C)Oc1ccc2[nH]nc(-c3ccnc(NS(=O)(=O)c4cccc(F)c4)c3)c2c1` [Example 256], the pIC50 was 7.37.

As for `CCOc1ccc2[nH]nc(-c3ccnc(N[C@@H](C)CO)c3)c2c1` [Example 358], the pIC50 was 7.80.

As to `c1cc(-c2n[nH]c3ccc(CNCC4CC4)cc23)cc(N2CCOCC2)n1` [Example 87], the pIC50 is 6.37.

As for `Cc1cccc(Nc2ccc3[nH]nc(-c4ccnc(N5CCOCC5)c4)c3c2)c1` [Example 114], the pIC50 was 7.54.

For the compound `COc1ccncc1-c1ccc2[nH]nc(-c3ccnc(N4CCOCC4=O)c3)c2c1` [Example 365], the pIC50 is 7.77.

In the case of `Cn1nccc1-c1ccc2[nH]nc(-c3ccnc(N4CCOCC4)c3)c2c1` [Example 345], the pIC50 is 7.74.

In the case of `Cc1nn(C)cc1-c1ccc2[nH]nc(-c3ccnc(N4CCOCC4)c3)c2c1` [Example 318], the pIC50 is 7.77.

As for `Cn1cc(-c2ccc3[nH]nc(-c4ccnc(N5CCC(F)(F)CC5)c4)c3c2)cn1` [Example 273], the pIC50 was 8.52.

With `COCC(C)Oc1ccc2[nH]nc(-c3ccnc(N4CCOCC4)c3)c2c1` (stereo not shown) [Example 305], the pIC50 was 8.27.

`CCCOc1ccc2[nH]nc(-c3ccnc(N4CCN(C)C(=O)C4)c3)c2c1` [Example 293]: the pIC50 is 7.82.

Regarding `CCCOc1ccc2[nH]nc(-c3ccnc(N4CCN(S(C)(=O)=O)CC4)c3)c2c1` [Example 295], the pIC50 was 7.77.

Turning to `CC(C)Oc1ccc2[nH]nc(-c3ccnc(N4CCN(C)C(C)C4)c3)c2c1` (stereo not shown) [Example 384], the pIC50 is 8.66.

Turning to `Fc1cnc(-c2ccc3[nH]nc(-c4ccnc(N5CCOCC5)c4)c3c2)nc1` [Example 337], the pIC50 was 7.38.

Take `COc1ccc(-c2ccc3[nH]nc(-c4ccnc(N5CCOCC5)c4)c3c2)c(OC)n1` [Example 328]: the pIC50 was 6.72.

As to `CCOc1ccc2[nH]nc(-c3ccnc(N4CCS(=O)(=O)CC4)c3)c2c1` [Example 298], the pIC50 is 7.29.

Regarding `COc1nccnc1-c1ccc2[nH]nc(-c3ccnc(N4CCOCC4)c3)c2c1` [Example 388], the pIC50 was 7.42.

Consider `CCCOc1ccc2[nH]nc(-c3ccnc(N4CCN(C)CC4)c3)c2c1` [Example 294], for which the pIC50 was 7.77.

Turning to `CC(C)Oc1ccc2[nH]nc(-c3ccnc(N4CCOC5(CC5)C4)c3)c2c1` [Example 378], the pIC50 was 8.12.

With `Oc1ccnc(F)c1-c1ccc2[nH]nc(-c3ccnc(N4CCOCC4)c3)c2c1` [Example 119], the pIC50 is 7.47.

Regarding `CC(C)Oc1ccc2[nH]nc(-c3ccnc(NS(=O)(=O)c4ccc(C(C)(C)C#N)cc4)c3)c2c1` [Example 264], the pIC50 is 7.16.

With `Cn1cncc1-c1ccc2[nH]nc(-c3ccnc(N4CCOCC4)c3)c2c1` [Example 313], the pIC50 was above 9.22.

Consider `OCc1ccc2[nH]nc(-c3ccnc(N4CCOCC4)c3)c2c1` [Example 86], for which the pIC50 was 7.79.

As for `COc1cccc(F)c1-c1ccc2[nH]nc(-c3ccnc(N4CCOCC4)c3)c2c1` [Example 314], the pIC50 was above 9.22.

For the compound `Cn1cc(-c2ccc3[nH]nc(-c4ccnc(N5CC6CCC(C5)O6)c4)c3c2)cn1` [Example 380], the pIC50 was 8.72.

In the case of `Cn1cc(-c2cc3c(-c4ccnc(N5CCOCC5)c4)n[nH]c3cc2F)cn1` [Ex 352], the pIC50 is 7.92.

`Fc1ccc2c(-c3ccnc(N4CCOCC4)c3)n[nH]c2c1` [Example 392]: the pIC50 is 7.49.

Consider `c1cc(-c2ccc3[nH]nc(-c4ccnc(N5CCOCC5)c4)c3c2)cnn1` [Example 319], for which the pIC50 was 8.09.

Consider `CO[C@H]1CN(c2cc(-c3n[nH]c4ccc(-c5cnn(C)c5)cc34)ccn2)C[C@@H]1O` [Example 269], for which the pIC50 is 8.38.

For the compound `CCOc1ccc2[nH]nc(-c3ccnc(NCCO)c3)c2c1` [Example 355], the pIC50 was 8.00.
